Key:
A375 = test: MTT cell viability assay, A375; type: cell-based, human; conditions: Homo sapiens; for IC50: A-375, 72 h, A375, MTT, mean ± SD
Experimental: Twelve compounds (2a-e, 3a-d and 4a-c) at a concentration range of 50–5000 μM were tested for their antiproliferative potential against four human cancer cell lines (A375—melanotic melanoma, C32—amelanotic melanoma, DU145—prostate cancer androgen-independent, MCF-7/WT—breast adenocarcinoma) and two normal cell lines: Chinese Hamster Ovary (CHO-K1) and immortalized human keratinocytes from histologically normal skin (HaCaT).
To determine the antiproliferative activity of newly synthesized compounds, the following cell lines were used: human melanotic melanoma cell line (A375), human amelanotic melanoma cell line (C32), human breast adenocarcinoma cell line (MCF-7/WT), human prostate cancer androgen-independent (DU145) and two normal cell lines: hamster ovarian (CHO-K1) and immortalized human keratinocytes from histologically normal skin (HaCaT). The cells were obtained from the cell line bank of the Department of Molecular and Cellular Biology, Wroclaw Medical University. A375, C32, MCF-7/WT, DU145 and HaCaT cells were grown in a monolayer cultured in Dulbecco’s Modified Eagle’s Medium (DMEM, Sigma-Aldrich, Poznań, Poland), supplemented with 10% of fetal bovine serum (FBS, Gibco, Paisley, UK) and 1% of antibiotics (penicillin/streptomycin, Sigma-Aldrich) and CHO-K1 were grown in HAM’s F-12 medium (Sigma-Aldrich), supplemented with 10% fetal bovine serum (FBS, Gibco) and 1% of antibiotics (penicillin/streptomycin, Sigma-Aldrich). Cell lines were cultured in the polystyrene flasks 25 or 75 cm^2 (Thermo Fisher Scientific, Waltham, MA, USA), which were stored in 37 °C and 5% CO2 in a humidified 95% atmosphere (SteriCult, Thermo Scientific, Alab). The cell medium was exchanged twice a week. The exponentially growing cells were used throughout the experiments. The cells were rinsed with phosphate-buffered saline (PBS, Sigma-Aldrich) and trypsinized by Trypsin-EDTA 0.25% solution (Sigma-Aldrich).
The influence of the compounds was performed in a monolayer culture on cancer and normal cells. Compounds were initially dissolved in DMSO; further dilutions of the compound were performed in Dulbecco’s Modified Eagle’s Medium supplemented with 10% FBS. Compounds were tested in a 50–5000 µM concentration range. In the in vitro experiments, the concentrations of DMSO in the final solution of the compounds were used 0.05%; 0.1%; 0.5%; 1%, respectively.
Cell viability was determined using the MTT colorimetric assay. All cell lines were seeded into 96-well plates to a density of 3 × 10^4 cells/well. After 24 h, the culture supernatants were removed and appropriate dilutions of compounds in the culture medium (200 µL/well) were added to the cells’ monolayer cultures and incubated for an additional 72 h. After 72 h of exposition to the compounds and the removal of the culture medium, cell viability was determined by reducing the yellow dye 3-(4,5-dimethyl-2-thiazol)-2,5-diphenyl-2H-tetrazolium bromide (MTT assay, Sigma Saint Louis, MO, USA; In Vitro Toxicology Assay) to a blue formazan product. The absorbance of the resulting solutions in three duplicate experiments was measured at the wavelength of 560 nm in a microplate reader (EnSpire, Perkin Elmer, Kraków, Poland). MTT assay is a colorimetric method that estimates the rate of metabolism in viable cells. Absorbance is directly proportional to the number of viable cells. All the experiments were performed three times and the mean absorbance values were calculated. The methodology for the evaluation of the growth of human cancer and normal cells was described previously. The cell viability in each group was expressed as a percentage of control (untreated) cells.

UACC-257 = test: NCI-60 screen, Melanoma UACC-257; type: cell-based; conditions: for Growth of Cells (%): UACC-257, 10^−5 M one dose
MDA-MB-468 = test: NCI-60 screen, Breast Cancer MDA-MB-468; type: cell-based, human; conditions: for Growth of Cells (%): MDA-MB-468, 10^−5 M one dose
Experimental: The search for the cytotoxic activity of new derivatives usually starts with in vitro cell-based screening. Four compounds 2b (NSC D-745983/1), 3b (NSC D-766111/1), 4b (NSC D-785591/1) and 4c (NSC D-771706/1), selected by the National Cancer Institute were tested in the anticancer screen for a panel of approximately 60 human disease-oriented tumor cell lines, organized into subpanels derived from nine human cancer types—leukemia, melanoma, and cancers of the lung, colon, brain, breast, ovary, prostate, and kidney. They were initially tested at only one concentration of 10 µM (10^−5 M) for each cell line, which were inoculated and preincubated on a microtiter plate for […]. The results of the one-dose anticancer assay for the tested new compounds are reported as the percentage of the treated cell growth in comparison with untreated no-drug control. This allows for detection of the growth inhibition—values 0–100 and cytotoxicity; negative numbers mean cell death.
Antitumor activity in five dose testing (10^−4−10^−8 M) is expressed by three different dose–response parameters for each of the 60 human tumor cell lines. The GI50 value (molar concentration causing a half-growth inhibition), TGI (molar concentration required for total growth inhibition), which signifies the cytostatic effect, and LC50 (molar concentration of the compound required for 50% cell death). LC50 signifies the cytotoxic effect. […] Nevertheless, the selectivity for GI50 can be seen for several cell lines within subpanel leukemia (SR, log GI50 −6.36) and non-small cell lung cancer (NCI-H522, log GI50 −6.69).
The antitumor screening (NCI-60) was performed at the National Cancer Institute, Bethesda, USA. A total panel of approximately 60 human tumor cell lines derived from nine different cancer types (leukemia, non-small cell lung, colon, brain, melanoma, ovarian, renal, prostate and breast) formed the basis of this in vitro test. The origins and processing of the cell lines used in the study were described previously. First, the compounds were evaluated in a primary anticancer assay at 10^−5 M. Results for each tested compound are reported as the percent of growth of the treated cells. […] The human tumor cell lines of the cancer screening panel were grown in an RMPI 1640 medium containing 5% fetal bovine serum and 2 mM of L-glutamine. Each cell line was inoculated and preincubated at 37 °C, 5% CO2, 95% air and 100% relative humidity for 24 h, before the addition of the test compound into 96-well microtiter plates in 100 µL at plating densities ranging from 5000 to 40,000 cells/well. The density of inoculum depends on the type of tumor cell and its growth characteristics. The screened compounds were solubilized in dimethyl sulfoxide at 400-fold the desired final concentration and stored frozen. At the time of the test agents’ addition, an aliquot of frozen concentrate was thawed and diluted to twice the desired final concentration with complete medium containing 50 µg/mL gentamicin. Next, the test compounds were evaluated at the four additional 10-fold dilutions to reach the final concentrations plus control. Aliquots of 100 µL of the different dilutions (100, 10, 1, […] µM/mL) of the tested compounds were added to microtiter wells, and the culture was incubated for 48 h under the same conditions. Cell were fixed in situ by the addition of 50 µL of cold 50% trichloroacetic acid and incubated for 60 min at 4 °C. The supernatant was discarded; plates were washed five times with water and air-dried. Sulforhodamine B at 0.4% in 1% acetic acid, 100 µL, was added to each well, then plates were incubated for 10 min at room temperature. Unbound dye was removed by washing five times with 1% acetic acid and air dried. The protein-bound stain was solubilized with a […] trizma base and the absorbance was read on an automated plate reader. A wavelength of 515 nm was used to read optical densities. […]

| SMILES | IC50 (A375) | Growth of Cells (%) (UACC-257) | Growth of Cells (%) (MDA-MB-468) | viability at 50 µM (A375; A-375, A375 melanotic melanoma, 50 µM, 72 h) | GI50 (UACC-257; Homo sapiens, UACC-257, five doses 10^−4–10^−8 M) | CC50 (UACC-257; Homo sapiens, UACC-257, five doses 10^−4–10^−8 M, read-out: log LC50 (the source's name) (converted)) | log TGI (UACC-257; UACC-257, five doses 10^−4–10^−8 M) | GI50 (MDA-MB-468; Homo sapiens, MDA-MB-468, five doses 10^−4–10^−8 M) | CC50 (MDA-MB-468; Homo sapiens, MDA-MB-468, five doses 10^−4–10^−8 M, read-out: log LC50 (the source's name) (converted)) | log TGI (MDA-MB-468; MDA-MB-468, five doses 10^−4–10^−8 M) |
| --- | --- | --- | --- | --- | --- | --- | --- | --- | --- | --- |
| CCNc1nc(C(F)(F)F)nc2c1sc(=S)n2-c1ccccc1 [Compound 4b, 7-(ethylamino)-3-phenyl-5-(trifluoromethyl)[1, 3]thiazolo[4,5-d]pyrimidine-2(3H)-thione] | 524 ± 22.3 µM | 98.66% | 81.60% | – | – | – | – | – | – | – |
| Fc1ccc(CNc2nc(C(F)(F)F)nc3c2sc(=S)n3-c2ccccc2)cc1 [Compound 4c] | 507 ± 22.1 µM | 96.72% | 96.15% | – | – | – | – | – | – | – |
| FC(F)(F)c1nc(Cl)c2sc(=S)n(-c3ccccc3)c2n1 [Compound 3b, 7-chloro-3-phenyl-5-(trifluoromethyl)[1, 3]thiazolo[4,5-d]pyrimidine-2(3H)-thione] | 25.4 ± 0.5 µM | 19.38% | 54.38% | 20% | 1.74 µM | 7.94 µM | −5.43 log M | 1.7 µM | 7.41 µM | −5.45 log M |
| O=c1[nH]c(C(F)(F)F)nc2c1sc(=S)n2-c1ccccc1 [Compound 2b, 3-phenyl-2-thioxo-5-(trifluoromethyl)-2,3-dihydro[1, 3]thiazolo[4,5-d]pyrimidin-7(6H)-one] | 367 ± 15.1 µM | 107.08% | 91.37% | – | – | – | – | – | – | – |

— PMC8778818, “Synthesis, Structural Characterization and Anticancer Activity of New 5-Trifluoromethyl-2-thioxo-thiazolo[4,5-d]pyrimidine Derivatives” (Pharmaceuticals, 2022)
